Patent US11583570B2, “Use of autoinducer-related pathway in inducing apoptosis and anti-infective therapy” (TSINGHUA UNIVERSITY, priority 2017, dated 2023)

Key:
Fas = assay: DTSSP cross-linking assay, Fas; assay type: cell-based; details: crosslinker DTSSP, prolonged incubation
Protocol: (§1) For FADD immunoprecipitation, 4 μg anti-mouse FADD pAb (Santa Cruz, H-181) were incubated with 100 μl protein A/G agarose for 2 hrs at RT. 3 million/ml purified CD4 T cells were stimulated with HSLs or left untreated. The cells were then collected and lysed with IP lysis buffer (50 mM HEPES pH 7.4, 150 mM NaCl, 1% NP-40, 1 mM EDTA, 1 mM PMSF, 1 mM NaF, 1 mM NaVO3 and protease inhibitor cocktails). The cell lysates were added into antibody-bead mixtures for 3 hrs at 4° C. Beads were then collected by low speed centrifugation (1000 g, 5 min) and washed 4 times with IP lysis buffer (300 mM NaCl added). After the last wash, pellets were suspended with 70 ul 2×SDS loading buffer and boiled for 5 min. For caspase 8 immunoprecipitation, 4 μg anti-Caspase 8 pAb (Santa Cruz, C-20) was incubated with 100 μl protein A/G agarose for 1 hr at RT. 3 million/ml H9 cells were treated with HSLs or left untreated. The samples were processed as in FADD IP. For cross-linking assay, CD4+ T cells isolated from C57BL/6 mice spleen or human THP-1 cells was stimulated with HSLs or left untreated, then cells were collected and cross-linked by 10 mM DTSSP at RT for 30 min and quenched with 1M Tris-HCl (pH7.5) for 15 min. […]

monocytic RAW264.7 = assay: Annexin V/PI apoptosis detection, RAW264.7; assay type: cell-based
Protocol: (§2) Cell apoptosis was detected with Annexin V/PI apoptosis detection Kit. Briefly, cells were stimulated with HSLs or left untreated. 6 hrs later, cells were collected and stained with Annexin VFITC and PI for 15 min at RT, then the apoptotic effect was measured by flow cytometry. OT-I or OT-II splenocytes were pulsed with specific peptides or PMA and ionomycin mixture with or without HSLs or TNF α plus cycloheximide. 24 hrs later, cells and supernatants were collected separately. For OT-I activation, cells were stained with CD69 and CD8. For OT-II activation, cells were stained with CD69 and CD4. Cell activation was measured by flow cytometry. All supernatants were detected for IL-2 secretion by ELISA.

lymphoblast H9 = assay: Annexin V/PI apoptosis detection, H9; assay type: cell-based, human
Protocol: as §2

Fcγ RIIA = assay: Quantum dot-based single particle tracking, Fcγ RIIA in Cos-1 cells; assay type: cell-based, human
Protocol: To track individual TNFR1 on the cell membrane, anti-TNFR1 IgG (was first papain digested to yield a Fab fragment. The Fab was then conjugated with biotin through the unique —SH at its C terminal. To prepare anti TNFR1 Fab QD conjugates, a solution of 0.7 nM anti TNFR1—Fab-biotin in 1 ml of DMEM was added drop-wise to 1 ml of 2 nM QD 605-streptavidin conjugate. Cell monolayers (50% confluent) previously serum starved for 1 hr were treated with 3OC12 HSL or left untreated and incubated with […] of the final anti TNFR1-Fab-QD solution at 25° C. for 2 min. The cells were then washed twice with PBS at 25° C., placed in serum-free medium, and loaded for imaging. For single-FcRγIIA tracking, Fc fragment was obtained by papain digestion of an anti-BSA IgG (Sigma Aldrich). Fc-QD conjugate was produced as described before. Cos-1 cells were transiently transfected with Fcγ RIIA plasmid, 24 hrs later, cells were stimulated with 3OC12 HSL or left untreated and incubated with […] of the final Fc-QD solution at 25° C. for 2 min. Quantum dot-labeled cells were imaged in TIRF mode. The fluorescence was excited at 488 nm and gated by a band-pass filter (575-640, Carl Zeiss). The excitation power was about 2 mW measured after the objective. Movies of 400 frames were acquired for each sample at a full-frame rate of 17 Hz. Individual trajectories were constructed by Utrack written in Matlab. Diffusion coefficient and plot area were calculated by customized programs written with Matlab. For motion pattern determination by MSD-t analysis 5: linear, simple Brownian diffusion; open-up parabolic, directed diffusion; open-down parabolic, restricted diffusion; and near zero, stationary.

[1] = system: thioglycolate-induced macrophages; assay: Annexin V/PI apoptosis detection, macrophages; assay type: cell-based
Protocol: as §2

TNFR1 [2] = assay: DTSSP cross-linking assay, TNFR1; assay type: cell-based; details: crosslinker DTSSP, non-reducing condition
Protocol: as §1

TNFR1 [3] = assay: Lipid raft isolation, TNFR1 in detergent resistant domains; assay type: cell-based; details: human and mouse T cells
Lipid binding assay = assay type: physicochemical; details: DOPC, DPPC, PE, cholesterol, sphingomyelin individually or in combination
Protocol: 1 mg/ml of each lipid species in chloroform was coated on round glass slides by evaporation.
Then the glass slices were incubated with 100 μM 3OC12 HSL in DMSO in PBS at 37° C. After the incubation, the glass slices were washed slightly with PBS for 4-5 times and lipids were dissolved with DMSO. The amount of 3OC12 HSL in each sample was measured by QS bioassay as described above.

In the case of `CCCCCCCCCC(=O)CC(=O)N[C@H]1CCOC1=O` [3OC12 HSL, N-(3-oxo-dodecanoyl) homoserine lactone], the Fas oligomerization (Fas) is reported as “did not show a significant change”, the “sensitivity to 3OC12 HSL” value (monocytic RAW264.7) is reported as “sensitive” and the “sensitivity to 3OC12 HSL” value (lymphoblast H9) is reported as “relatively resistant”. The “Fcγ RIIA motion pattern” value (Fcγ RIIA) was “higher percentage of Fcγ RIIA belonged to the simple and directed motions”, the “Fcγ RIIA diffusion coefficient” value (Fcγ RIIA; without 3OC12 HSL 0.1056) was 0.1564+/−0.006 and the “area covered by Fcγ RIIA motion tracks” value (Fcγ RIIA; without 3OC12 HSL 0.6467) was 0.9310+/−0.045. The “sensitivity to 3OC12 HSL” value [1] was “relatively resistant”, the “amount of band with approximate 3 times the molecular weight of TNFR1 monomer” value (TNFR1 [2]) was “rapidly increased” and the “TNFR1 associated with lipid rafts” value (TNFR1 [3]) was “reduced”. The “retention by coated lipid components” value (Lipid binding assay) was “only lipid components containing cholesterol, sphingomyelin and DOPC were able to efficiently retain”.
